Test [1] deals with caspase 3/7 activation in NCI-H441 cells. Description: Caspase-Glo 3/7 assay. The format is cell-based. The conditions noted are these: 24 hours post-treatment, normalized to DMSO control, combination at 1:1. The protocol:
Cell lines were maintained in the growth medium recommended by ATCC (American Type Culture Collection). […] The compounds were serially diluted in DMSO from the highest concentration of 30 μM (single compounds and in combination with constant a constant ratio of 1:1). […] The percentage of induction of apoptosis was normalized to DMSO control (no compound).

The test system of a further test is T47-D. Description: Anti-proliferation assay with +JQ1, Chalice synergy score. The format is cell-based, human. The conditions noted are these: combination with +JQ1, average. As to the method:
(§1) Cells were thawed from a liquid nitrogen preserved state.
(§2) The calculation for synergy score is provided below.
(§3) If T≧V0:100*[1−(T−V0)/(V−V0)]
(§4) Cells were grown, treated and analyzed as described above, and synergy was calculated using the Chalice Software (Zalicus, Inc., Cambridge Mass.), described above. Cell lines used included T47D (human ductal breast epithelial tumor cell line), MCF (adenocarcinoma breast cancer cell line), MDA-MM468 (adenocarcinoma breast cancer cell line), HCC-70 (carcinoma, ductal breast cancer cell line), SKBR-3 (adenocarcinoma breast cancer cell line), MM-453 (adenocarcinoma breast cancer cell line).

Test [2] deals with cancer cell lines (T47D, MCF, MDA-MM468, HCC-70, SKBR-3, MM-453). Nature of the test: Anti-proliferation assay with +JQ1, cancer cell lines overall. The format is cell-based. The conditions noted are these: treatment with +JQ1. The protocol:
as §4

The next test has as its system SKBR-3. Description: Anti-proliferation assay with +JQ1, Chalice synergy score. The format is cell-based. The conditions noted are these: combination with +JQ1, average. As to the method:
as §1, §2, §3, §4

For a further test, the system named is HCC-70. The test is described as above. The format is cell-based. The conditions noted are these: combination with +JQ1, average. The protocol:
as §1, §2, §3, §4

The subject of a further test is MCF-7. Described as above. The format is cell-based. The conditions noted are these: combination with +JQ1, average. The protocol:
as §1, §2, §3, §4

A further test relates to MM-453. The description is as above. The format is cell-based. The conditions noted are these: combination with +JQ1, average. As to the method:
as §1, §2, §3, §4

For another test, the system named is MM-468. The description is as above. The format is cell-based. The conditions noted are these: combination with +JQ1, average. As to the method:
as §1, §2, §3, §4

The test system of test [3] is breast cancer cell line panel. Description: Anti-proliferation assay, seventeen breast cancer cell line panel. The format is cell-based. To be noted: single agent, cell lines where the GI50 reached inhibition levels of greater than fifty percent, read-out: median GI50. The source says:
Cells were thawed from a liquid nitrogen preserved state. […] After seventy-two hours, […] developed for endpoint analysis using ATPLite. […] The calculation for synergy score is provided below. […] Compound 1 had varying activity across the seventeen cell line panel.

A further test deals with HCC-1187. Nature of the test: Anti-proliferation assay (ATPLite), Chalice synergy score. The conditions noted are these: Compound 1 in combination with the named second active agent, 72 h, mean of n = 3 experiments in triplicate. The format is cell-based. The arrangement: scale not given here.
Source text: as §1, §2, §3

The test system of another test is BT-20. The description is as above. The format is cell-based. The arrangement: scale not given here. To be noted: Compound 1 in combination with the named second active agent, 72 h, mean of n = 3 experiments in triplicate.
Source text: as §1, §2, §3

The test system of the next test is HCC-1500. The description is as above. The format is cell-based. Also on record: scale not given here. To be noted: Compound 1 in combination with the named second active agent, 72 h, mean of n = 3 experiments in triplicate.
Source text: as §1, §2, §3

A further test deals with MDA-MB-468. The test is described as above. The format is cell-based. To be noted: Compound 1 in combination with second active agent, mean self-cross + 2σ threshold 4.66.
Source text: as §1, §2, §3

Another test deals with BT-549. The test is described as above. The format is cell-based. The conditions noted are these: Compound 1 in combination with the named second active agent, 72 h, mean of n = 3 experiments in triplicate.
Source text: as §1, §2, §3

A further test concerns MCF7. The description is as above. To be noted: Compound 1 in combination with second active agent, mean self-cross + 2σ threshold 3.07. The format is cell-based.
Source text: as §1, §2, §3

For the next test, the system named is MDA-MB-157. The test is described as above. The format is cell-based. The conditions noted are these: Compound 1 in combination with second active agent, mean self-cross + 2σ threshold 4.68.
Source text: as §1, §2, §3

The subject of the next test is HCC-1428. The description is as above. The format is cell-based. The conditions noted are these: Compound 1 in combination with the named second active agent, 72 h, mean of n = 3 experiments in triplicate.
Source text: as §1, §2, §3

Another test deals with MDA-MB-231. The test is described as above. The format is cell-based. The conditions noted are these: Compound 1 in combination with second active agent, mean self-cross + 2σ threshold 2.61.
Source text: as §1, §2, §3

The test system of the next test is MDA-MB-436. The test is described as above. The format is cell-based. The conditions noted are these: Compound 1 in combination with second active agent, mean self-cross + 2σ threshold 1.91.
Source text: as §1, §2, §3

In the next test the test system is BT-474. Described as above. The format is cell-based. The conditions noted are these: Compound 1 in combination with the named second active agent, 72 h, mean of n = 3 experiments in triplicate.
Source text: as §1, §2, §3

For a further test, the system named is Hs-578-T. The test is described as above. The format is cell-based. The conditions noted are these: Compound 1 in combination with second active agent, mean self-cross + 2σ threshold 4.09.
Source text: as §1, §2, §3

A further test deals with HCC70. The test is described as above. The format is cell-based. To be noted: Compound 1 in combination with second active agent; HCC-70; mean self-cross + 2σ threshold 3.45.
Source text: as §1, §2, §3

Another test deals with HCC-1806. Described as above. The format is cell-based. The conditions noted are these: Compound 1 in combination with the named second active agent, 72 h, mean of n = 3 experiments in triplicate.
Source text: as §1, §2, §3

The next test relates to HCC-1937. The description is as above. The format is cell-based. To be noted: Compound 1 in combination with the named second active agent, 72 h, mean of n = 3 experiments in triplicate.
Source text: as §1, §2, §3

In general, GI50 refers to the concentration giving 50% growth inhibition.

With `CO[C@H]1CC[C@H](N2C(=O)CNc3ncc(-c4ccc(C(C)(C)O)nc4)nc32)CC1` [Compound 2, 7-(6-(2-hydroxypropan-2-yl)pyridin-3-yl)-1-((1r,4r)-4-methoxycyclohexyl)-3,4-dihydropyrazino-[2,3-b]pyrazin-2(1H)-one], the “% Caspase activation Mean (n = 3)” value in test [1] (0.1 μM) is given as 69.9%; in test [1] (0.3 μM) it was 66.4%; in [1] (1 μM) it was 67.7%; in test [1] (3 μM), 77.7%; in test [1] (10 μM), 80%; in test [1] (30 μM), 85.5%. Moreover, the “Chalice Calculated Synergy Scores, Averages” value with T47-D was 4.02; in the test with SKBR-3 it was 6.14; in the test with HCC-70, 5.98; in the test with MCF-7 it was 2.07; in the test on MM-453, 7.03; in the test with MM-468, 11.58. The Synergism result in test [2] was “Synergism was observed”.
Turning to `CCN1C(=O)CNc2ncc(-c3ccc(-c4nc[nH]n4)nc3C)nc21` [Compound 1, 1-ethyl-7-(2-methyl-6-(1H-1,2,4-triazol-3-yl)pyridin-3-yl)-3,4-dihydropyrazino[2,3-b]pyrazin-2(1H)-one], the “Chalice Calculated Synergy Scores, Averages” value in the test with T47-D is 8.74; in the test on SKBR-3, 9.59; with HCC-70, 12.05; in the test with MCF-7, 7.37; with MM-453 it was 16.37; with MM-468, 17.26. Also, the GI50 in test [3] came out at 140 nM. The Synergism entry in test [2] is recorded as “Synergism was observed”.
As to `O=C(NOCC1CC1)c1ccc(F)c(F)c1Nc1ccc(I)cc1Cl` [CI-1040], the “% Caspase activation Mean (n = 3)” value in test [1] (0.1 μM) amounted to 98.6%; in test [1] (0.3 μM), 104.1%; in test [1] (1 μM) it was 96.6%; in test [1] (3 μM), 99.3%; in test [1] (10 μM) it was 103.9%; in test [1] (30 μM) it was 124.2%.
On to `NC1(c2ccc(-c3nc4ccn5c(=O)[nH]nc5c4cc3-c3ccccc3)cc2)CCC1` [MK-2206], for which the Synergy score with HCC-1187 is 10.60; with BT-20, 13.10; in the test on HCC-1500 it was 2.02; in the test with MDA-MB-468, 10.80; in the test on BT-549 it was 9.17; in the test with MCF7, 12.10. Moreover, the Synergy score with MDA-MB-157 was 9.00; in the test with HCC-1428 it was 4.09; in the test with MDA-MB-231, 3.39; in the test with MDA-MB-436, 5.55; in the test on BT-474, 8.24; in the test on Hs-578-T, 12.60. Also, the results for the Synergy score with HCC70, in the test on HCC-1806 and in the test on HCC-1937 were 13.30, 7.33 and 11.40, respectively.
Take `NC(=O)Nc1cc(-c2cccc(F)c2)sc1C(=O)N[C@H]1CCCNC1` [AZD7762]: the Synergy score with HCC-1187 stood at 1.65; in the test on BT-20 it was 3.92; with HCC-1500, 3.02; with MDA-MB-468, 0.94; in the test on BT-549 it was 0.39; in the test on MCF7 it was 0.08. Besides, the Synergy score was 3.09 in the test with MDA-MB-157; 2.58 in the test on HCC-1428; 3.66 with MDA-MB-231; 0.93 in the test on MDA-MB-436; 1.21 in the test with BT-474; 8.16 with Hs-578-T. For the same compound, the Synergy score was found to be 4.61 in the test on HCC70, 0.32 with HCC-1806 and 4.44 in the test with HCC-1937.
